Measurements: patent US10921312B2 (priority 2014, dated 2021)
Entries after “also recorded” stand apart in the source; their conditions may differ.

Legend:
[1] = system: iCell® neurons (human induced pluripotent stem cell-derived neurons); assay type: cell-based
Neuro2A cells = assay type: cell-based

GT1b
increase of sensitivity to neurotoxin polypeptide [1]: ~7 fold | increase in sensitivity to neurotoxin (Neuro2A cells): did not exhibit a comparable increase in sensitivity; also recorded: no increase in sensitivity
